From PubChem BioAssay (NCI) come the findings set out here.

Some test systems named below: MCF7 breast; A498 renal; NCI-H23 lung; MDA-MB-231 breast; NCI-H460 lung; SR leukemia; T-47D breast; OVCAR-4 ovarian; SK-MEL-28 melanoma; U251 CNS; IGROV1 ovarian; BT-549 breast; SNB-19 CNS; UO-31 renal; NCI-H226 lung; TK-10 renal; ACHN renal; DU-145 prostate; COLO 205 colon; SK-OV-3 ovarian.
What all share (assay): growth of human tumour cells (NCI), 48 h

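A five-concentration, 48-hour dose response in 96-well plates underlies each endpoint, interpolated linearly between surrounding concentrations. TGI marks complete inhibition of growth.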 A value given as a limit tells only on which side of the number the result lay.

As to `Cc1cc(C)c2c(c1)C/C(=C\c1ccccc1C(=O)O)C2=O`, the TGI in the assay with MCF7 breast is more than 100 µM; in the assay with A498 renal, more than 100 µM; in the assay with NCI-H23 lung, more than 100 µM; in the assay with MDA-MB-231 breast, more than 100 µM; in the assay with NCI-H460 lung it was 26.4 µM; with SR leukemia it was more than 100 µM. Moreover, the TGI was more than 100 µM with T-47D breast; more than 100 µM with OVCAR-4 ovarian; more than 100 µM in the assay on SK-MEL-28 melanoma; more than 100 µM in the assay on U251 CNS; more than 100 µM in the assay with IGROV1 ovarian; 97.8 µM with BT-549 breast. For the same compound, the TGI with SNB-19 CNS, with UO-31 renal, in the assay on NCI-H226 lung, with TK-10 renal, in the assay with ACHN renal and in the assay on DU-145 prostate was more than 100 µM each time.
`O=C(O)c1nc2ccc(C(F)(F)F)cc2nc1NCc1ccc(F)cc1`: the TGI is 68.8 µM in the assay on MCF7 breast; 55.4 µM in the assay on A498 renal; 79.8 µM in the assay on NCI-H23 lung; 44.6 µM in the assay on COLO 205 colon; 81.4 µM with MDA-MB-231 breast; 63 µM in the assay with NCI-H460 lung. Moreover, the TGI was 93 µM in the assay on SK-OV-3 ovarian; 42 µM in the assay with SR leukemia; more than 100 µM in the assay on T-47D breast; more than 100 µM in the assay on OVCAR-4 ovarian; more than 100 µM with SK-MEL-28 melanoma; 56.9 µM in the assay on U251 CNS. For the same compound, the TGI with IGROV1 ovarian was more than 100 µM; with BT-549 breast, 90.2 µM; in the assay with SNB-19 CNS, more than 100 µM; in the assay on UO-31 renal, 7.39 µM; with NCI-H226 lung, more than 100 µM; in the assay on ACHN renal, more than 100 µM. The compound also came in with a TGI in the assay on DU-145 prostate of more than 100 µM.
As to `O=C1NC(=O)C(c2c[nH]c3ccccc23)=C1c1cn(C(c2ccccc2)(c2ccccc2)c2ccccc2)cn1`, the TGI with MCF7 breast is 17.7 µM; in the assay with A498 renal, 18.3 µM; in the assay with NCI-H23 lung, 30.8 µM; in the assay with COLO 205 colon it was 15 µM; in the assay on MDA-MB-231 breast it was 25.7 µM; in the assay with NCI-H460 lung it was 14.6 µM. The TGI worked out at 57 µM with SK-OV-3 ovarian; 6.78 µM with SR leukemia; 23.7 µM in the assay on T-47D breast; 17.5 µM with OVCAR-4 ovarian; 44.9 µM in the assay with SK-MEL-28 melanoma; 15.3 µM in the assay on U251 CNS. Besides, the TGI amounted to 26.2 µM in the assay on IGROV1 ovarian; 27.2 µM in the assay with BT-549 breast; 65.3 µM in the assay on SNB-19 CNS; 19.9 µM with NCI-H226 lung; 36.5 µM in the assay with TK-10 renal; 26.6 µM in the assay with ACHN renal. This compound also showed a TGI in the assay with DU-145 prostate of 63.5 µM.
For `Nc1nc(Cl)c(N)c(NCC2(CO)CCCC2)n1`, the TGI was more than 100 µM in the assay on MCF7 breast; more than 100 µM in the assay with A498 renal; more than 100 µM with MDA-MB-231 breast; more than 100 µM in the assay on NCI-H460 lung; 24.2 µM in the assay on SK-OV-3 ovarian; more than 100 µM with SR leukemia. The TGI is 35.9 µM in the assay on T-47D breast; more than 100 µM in the assay on OVCAR-4 ovarian; more than 100 µM with SK-MEL-28 melanoma; more than 100 µM in the assay with U251 CNS; more than 100 µM with IGROV1 ovarian; more than 100 µM in the assay on BT-549 breast. Further, the TGI in the assay with SNB-19 CNS, in the assay with UO-31 renal, in the assay with NCI-H226 lung, in the assay on TK-10 renal, with ACHN renal and in the assay with DU-145 prostate was more than 100 µM in each case.
On to `Cc1nc2ccc(NC(=S)Nc3ccccc3)cc2c(=O)n1-c1ccccc1`, for which the TGI in the assay on MCF7 breast, in the assay on A498 renal, with NCI-H23 lung, in the assay with COLO 205 colon, in the assay on MDA-MB-231 breast and with NCI-H460 lung was more than 100 µM each time. Besides, the TGI with SR leukemia, in the assay with T-47D breast, with OVCAR-4 ovarian, in the assay on SK-MEL-28 melanoma, with U251 CNS and with IGROV1 ovarian was more than 100 µM each time. Moreover, the TGI in the assay with BT-549 breast, in the assay on SNB-19 CNS, with UO-31 renal, in the assay on NCI-H226 lung, in the assay on TK-10 renal and with ACHN renal was more than 100 µM in each case. For the same compound, the TGI with DU-145 prostate was more than 100 µM.
Regarding `CC(=O)N(CCc1ccccc1)C(C#N)c1ccccc1` (stereo not given), the TGI in the assay with MCF7 breast, in the assay with A498 renal, in the assay on NCI-H23 lung, in the assay with COLO 205 colon, with MDA-MB-231 breast and in the assay on SK-OV-3 ovarian was more than 100 µM in each case. For the same compound, the TGI in the assay on SR leukemia, in the assay on T-47D breast, in the assay with OVCAR-4 ovarian, in the assay with U251 CNS, with IGROV1 ovarian and in the assay with BT-549 breast was more than 100 µM each time. The TGI in the assay on SNB-19 CNS, in the assay on UO-31 renal, with NCI-H226 lung, with TK-10 renal, with ACHN renal and in the assay with DU-145 prostate was more than 100 µM each time.
As for `O=C(/N=C/c1c(O)c2ccccc2oc1=O)Oc1ccccc1`, the TGI in the assay with MCF7 breast is more than 100 µM; with A498 renal, 46.2 µM; in the assay with NCI-H23 lung, 68.5 µM; in the assay with COLO 205 colon it was more than 100 µM; in the assay with MDA-MB-231 breast, 84.1 µM; with NCI-H460 lung, more than 100 µM. Further, the TGI is 66 µM with SK-OV-3 ovarian; more than 100 µM in the assay with SR leukemia; 91.9 µM in the assay with T-47D breast; 65.8 µM in the assay with OVCAR-4 ovarian; 87.5 µM in the assay on U251 CNS; 60.7 µM in the assay on IGROV1 ovarian. In addition, the TGI with BT-549 breast is 81 µM; in the assay on SNB-19 CNS, more than 100 µM; in the assay with UO-31 renal, 63.6 µM; in the assay with NCI-H226 lung it was 44.9 µM; in the assay with TK-10 renal it was 79.6 µM; in the assay with ACHN renal, more than 100 µM. The TGI with DU-145 prostate is more than 100 µM.
